Data from patent US8142805B1, “Implantable devices including fixed tissues” (Clemson University Research Foundation, priority 2006, dated 2012).

Tested on: hyaluronidase
Assay: Hyaluronic acid zymography of explant tissue capsules
Assay type: biochemical, rats
Conditions: developing buffer containing 1 M neomycin; HA gels
Experimental: Hyaluronic acid zymography studies were performed to study the inhibitory effect of neomycin on hyaluronidase. Tissue capsules from 3 weeks explanted treated aortic cusp samples were homogenized and used for gel zymography. Hyaluronic acid (HA) gels were made by incorporating 170 μg/ml of HA in 10% polyacrylamide gels. The tissue extracts were run at 90 Volts for 150 minutes. Protein molecular weight standards (10-150 kDa) were used to identify the molecular weights. Gels were incubated in the developing buffer (two for each sample type) and gels were also incubated in developing buffer containing 1 M neomycin. FIG. 8a and FIG. 8B show similar band intensities for active hyaluronidases in all groups. Thus, presence of more GAGs in Group 1 (Neomycin+EDC+GLUT) was not due to lower enzyme activity in this group as compared to other groups.

effect on hyaluronidase activity (zymography band density): inhibited enzyme activity
Compound: NCC1OC(OC2C(CO)OC(OC3C(O)C(N)CC(N)C3OC3OC(CN)C(O)C(O)C3N)C2O)C(N)C(O)C1O (stereo not shown) [neomycin trisulfate]
